From article PMC7689752 (Clinical Pharmacology and Therapeutics, 2020)

Tests used:
[1] = parameters: species or system human; conditions: prediction for high-clearance drugs, not studied here
[2] = Integrated population pharmacokinetic model; assay type: in vivo, human; conditions: for Decrease of clearance during TH compared with normothermia: 33.5°C vs 36.5°C; for PNA on Cl: increase of clearance per hour of postnatal age, first 5 days of life; for TEMP on Cl: reduction of clearance per °C of body temperature below 36.5°C
[3] = interindividual variability in clearance, common eta

SMILES | PNA on Cl [2] | Correlation in clearance with Midazolam [2, 3] | Correlation in clearance with Morphine [2, 3] | Correlation in clearance with OHM [2, 3] | other results
N=C1N[C@H]2[C@H](CS[C@H]2CCCCC(=O)O)N1 [2‐iminobiotin] |  |  |  |  | Expected change of clearance with PNA [1]: The same prediction can be made
OCc1ncc2n1-c1ccc(Cl)cc1C(c1ccccc1F)=NC2 [OHM, 1‐hydroxymidazolam] | 0.540 %/h | 57.0% | 63.3% |  | Decrease of clearance during TH compared with normothermia [2]: 20.5%; TEMP on Cl [2]: 6.83 %/°C
CNC(C)C1CCC(N)C(OC2C(N)CC(N)C(OC3OCC(C)(O)C(NC)C3O)C2O)O1 (stereo not shown) [Gentamicin, gentamicin] | 1.23 %/h | 41.4% | 45.9% | 41.8% | Correlation in clearance with Amoxicillin [2, 3]: 27.9%; Correlation in clearance with Benzylpenicillin [2, 3]: 38.8%; Correlation in clearance with HMG [2, 3]: 41.4%; Correlation in clearance with M3G [2, 3]: 23.4%; Correlation in clearance with M6G [2, 3]: 21.5%
CN1CC[C@]23c4c5ccc(O[C@@H]6O[C@H](C(=O)O)[C@@H](O)[C@H](O)[C@H]6O)c4O[C@H]2[C@@H](O)C=C[C@H]3[C@H]1C5 [M3G, morphine‐3‐glucuronide] | 1.23 %/h | 31.9% | 35.4% | 32.2% | 
CC[C@@H](C(N)=O)N1CCCC1=O [levetiracetam] |  |  |  |  | Expected change of clearance with PNA [1]: clearance increases strongly with PNA
CC1(C)S[C@@H]2[C@H](NC(=O)[C@H](N)c3ccc(O)cc3)C(=O)N2[C@H]1C(=O)O [Amoxicillin, amoxicillin] | 1.23 %/h |  |  |  | 
Cc1ncc2n1-c1ccc(Cl)cc1C(c1ccccc1F)=NC2 [Midazolam, midazolam] | 0.540 %/h |  | 62.2% |  | Decrease of clearance during TH compared with normothermia [2]: 20.5%; TEMP on Cl [2]: 6.83 %/°C
CCNCC(=O)Nc1c(C)cccc1C [MEGX, monoethylglycinexylidide] | 1.23 %/h |  |  |  | 
Oc1ncnc2[nH]ncc12 [allopurinol] |  |  |  |  | Expected change of clearance with PNA [1]: The same prediction can be made
CC1(C)S[C@@H]2[C@H](NC(=O)Cc3ccccc3)C(=O)N2[C@H]1C(=O)O [Benzylpenicillin, benzylpenicillin] | 1.23 %/h | 52.8% | 58.6% | 53.4% | Correlation in clearance with Amoxicillin [2, 3]: 35.5%; Correlation in clearance with HMG [2, 3]: 52.8%; Correlation in clearance with M6G [2, 3]: 27.4%
CN1CC[C@]23c4c5ccc(O)c4O[C@H]2[C@@H](O[C@@H]2O[C@H](C(=O)O)[C@@H](O)[C@H](O)[C@H]2O)C=C[C@H]3[C@H]1C5 [M6G, morphine‐6‐glucuronide] | 1.23 %/h | 29.3% | 32.5% | 29.6% | Correlation in clearance with M3G [2, 3]: 94.8%
O=C(O)[C@H]1O[C@@H](OCc2ncc3n2-c2ccc(Cl)cc2C(c2ccccc2F)=NC3)[C@H](O)[C@@H](O)[C@@H]1O [HMG, hydroxymidazolam glucuronide] | 1.23 %/h | 56.4% | 62.6% | 57.0% | Correlation in clearance with M3G [2, 3]: 31.9%; Correlation in clearance with M6G [2, 3]: 29.3%
CCC1(c2ccccc2)C(=O)NC(=O)NC1=O [Phenobarbital, phenobarbital] |  |  |  |  | PNA as covariate on clearance (in words) ([2]; recovery of organ function): No effect of PNA was identified
